The test concerns the target Xanthine dehydrogenase/oxidase (Bos taurus, UniProt P80457). The experiment in a line: Inhibition Assay: Xanthine oxidase (from bovine milk, Sigma) was prepared with phosphate-buffered saline (PBS) at 0.02 units/mL, and then the solution was added to 96 well plates at 50 μL/well. In addition, test compounds diluted with PBS were added at 50 μL/well. Xanthine (Wako) at 200 μM prepared with PBS was added at 100 μL/well, and the reaction was conducted for 10 minutes at room temperature. Absorbance at 290 nm was measured using a microplate reader SpectraMax Plus 384 (Molecular device). The absorbance under a condition without xanthine is 0%, and control without test compounds is 100%.

Molecules are shown by their SMILES.

Chain of Xanthine dehydrogenase/oxidase (P80457 whole entry): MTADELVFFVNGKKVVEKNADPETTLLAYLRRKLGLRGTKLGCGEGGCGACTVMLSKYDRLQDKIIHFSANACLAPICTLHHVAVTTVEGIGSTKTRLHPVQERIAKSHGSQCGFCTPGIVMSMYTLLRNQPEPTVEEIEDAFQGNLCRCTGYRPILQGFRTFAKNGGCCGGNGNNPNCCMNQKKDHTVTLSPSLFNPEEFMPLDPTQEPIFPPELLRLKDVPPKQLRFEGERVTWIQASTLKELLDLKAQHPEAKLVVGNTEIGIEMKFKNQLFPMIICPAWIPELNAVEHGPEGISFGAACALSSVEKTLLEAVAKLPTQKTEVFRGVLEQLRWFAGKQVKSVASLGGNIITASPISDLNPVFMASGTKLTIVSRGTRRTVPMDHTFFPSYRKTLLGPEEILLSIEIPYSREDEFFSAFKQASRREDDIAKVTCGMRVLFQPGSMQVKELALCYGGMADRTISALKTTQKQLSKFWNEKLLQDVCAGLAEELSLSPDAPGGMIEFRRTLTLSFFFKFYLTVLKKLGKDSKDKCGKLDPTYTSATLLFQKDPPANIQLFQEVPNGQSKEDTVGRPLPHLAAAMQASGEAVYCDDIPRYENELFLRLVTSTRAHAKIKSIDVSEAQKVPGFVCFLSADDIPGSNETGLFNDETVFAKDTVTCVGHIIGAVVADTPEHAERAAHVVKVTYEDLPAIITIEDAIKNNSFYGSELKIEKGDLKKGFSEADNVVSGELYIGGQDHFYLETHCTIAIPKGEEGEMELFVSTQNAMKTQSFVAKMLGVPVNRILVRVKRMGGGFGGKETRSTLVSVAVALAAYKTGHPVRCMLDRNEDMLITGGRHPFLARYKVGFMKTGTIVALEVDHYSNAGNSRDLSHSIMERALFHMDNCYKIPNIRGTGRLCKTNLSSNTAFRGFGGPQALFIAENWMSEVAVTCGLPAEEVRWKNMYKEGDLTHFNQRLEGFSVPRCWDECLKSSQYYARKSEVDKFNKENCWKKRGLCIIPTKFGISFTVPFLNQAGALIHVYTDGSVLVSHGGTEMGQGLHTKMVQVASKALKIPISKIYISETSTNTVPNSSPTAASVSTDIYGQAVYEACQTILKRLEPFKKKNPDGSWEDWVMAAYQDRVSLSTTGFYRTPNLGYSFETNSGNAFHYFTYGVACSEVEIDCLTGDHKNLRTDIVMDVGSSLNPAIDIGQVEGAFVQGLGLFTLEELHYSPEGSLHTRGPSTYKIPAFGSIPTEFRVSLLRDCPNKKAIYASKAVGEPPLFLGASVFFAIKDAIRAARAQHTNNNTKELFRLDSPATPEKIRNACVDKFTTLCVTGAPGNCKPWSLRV

Take `N#Cc1cn(-c2ccc(C(=O)O)cc2)cc1-c1ccc(OCCCO)cc1`: the IC50 came to 0.0632 µM. As for `N#Cc1cn(-c2ccc(C(=O)O)cc2)cc1-c1ccccc1OCCOc1ccccc1`, the IC50 was 0.047 µM.

Values taken from ChEMBL document CHEMBL3639260, “5-membered nitrogen containing heterocyclic derivatives and pharmaceutical compositions comprising the same” (2015).
